{"source": "patent US20250171437A1", "about": "(Agios Pharmaceuticals,Inc., priority 2022, published 2025)"}
{"biological_target": "T1, human PAH with the R408W mutation (A375 R408W cells) (Homo sapiens, UniProt P00439, R408W)", "T1 construct": "expressed in transfected cells", "T1 sequence (P00439 1-452 R408W)": "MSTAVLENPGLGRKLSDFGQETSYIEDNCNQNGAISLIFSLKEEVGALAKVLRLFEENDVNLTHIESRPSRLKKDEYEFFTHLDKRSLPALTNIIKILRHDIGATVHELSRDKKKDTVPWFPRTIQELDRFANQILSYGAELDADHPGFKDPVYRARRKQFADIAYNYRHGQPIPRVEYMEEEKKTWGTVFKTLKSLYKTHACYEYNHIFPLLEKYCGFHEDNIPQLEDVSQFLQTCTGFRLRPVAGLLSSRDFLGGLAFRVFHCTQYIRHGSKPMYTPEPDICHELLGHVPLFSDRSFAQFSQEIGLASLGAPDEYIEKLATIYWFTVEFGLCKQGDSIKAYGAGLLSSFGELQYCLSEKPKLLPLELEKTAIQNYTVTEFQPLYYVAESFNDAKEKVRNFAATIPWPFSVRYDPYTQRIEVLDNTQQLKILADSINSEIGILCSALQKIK", "assay": "Cell Based Phenylalanine Flux Assay", "settings": "A375 R408W cells; 24 hrs with compound, then 20 μM sepiapterin and 800 μM 13C9,15N-Phenylalanine for 4 hours; 13C-Tyrosine by LC-MS; average where tested multiple times", "outline": "(§1)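 A375 cells stably expressing lentiviral human PAH R408W were treated with compounds (10-point 2-fold dilutions, 0.5% DMSO, duplicate) for 24 h at 37 °C. Then 20 μM sepiapterin and 800 μM 13C9,15N-Phe were added for 4 h; media 13C-Tyr was measured by LC-MS to give AC50.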", "units": {"AC50": "µM"}}
{"molecule": "O=C(c1cnn2cc(N3CCC4(CC3)CC4)ccc12)N1CCc2[nH]cnc2[C@H]1c1nc2cccc(F)c2o1", "note": "[Example 395, (S)-(6-(6-azaspiro[2.5]octan-6-yl)pyrazolo[1,5-a]pyridin-3-yl)(4-(7-fluorobenzo[d]oxazol-2-yl)-6,7-dihydro-1H-imidazo[4,5-c]pyridin-5(4H)-yl)methanone]", "AC50": "0.5 to 1"}
{"molecule": "Cc1nc(-c2ccn(C)n2)oc1C(=O)N1CCc2[nH]cnc2[C@H]1c1nc2cc(F)ccc2o1", "note": "[Example 825, (S)-(4-(5-fluorobenzo[d]oxazol-2-yl)-6,7-dihydro-1H-imidazo[4,5-c]pyridin-5(4H)-yl)(4-methyl-2-(1-methyl-1H-pyrazol-3-yl)oxazol-5-yl)methanone]", "AC50": "1 to 5"}
{"molecule": "CC(F)(F)c1ncc(C(=O)N2CCc3[nH]cnc3[C@H]2c2nc3cc(F)ccc3o2)s1", "note": "[Example 35, (S)-(2-(1,1-difluoroethyl)thiazol-5-yl)(4-(5-fluorobenzo[d]oxazol-2-yl)-6,7-dihydro-1H-imidazo[4,5-c]pyridin-5(4H)-yl)methanone]", "AC50": "0.5 to 1"}
{"molecule": "Cc1cccc2nc([C@@H]3c4nc[nH]c4CCN3C(=O)c3cnco3)oc12", "note": "[Example 611, (S)-(4-(7-methylbenzo[d]oxazol-2-yl)-6,7-dihydro-1H-imidazo[4,5-c]pyridin-5(4H)-yl)(oxazol-5-yl)methanone]", "AC50": "0.5 to 1"}
{"molecule": "O=C(c1nnc(-c2ccccn2)o1)N1CCc2[nH]cnc2[C@H]1c1nc2cccc(C(F)(F)F)c2o1", "note": "[Example 838, (S)-(5-(pyridin-2-yl)-1,3,4-oxadiazol-2-yl)(4-(7-(trifluoromethyl)benzo[d]oxazol-2-yl)-6,7-dihydro-1H-imidazo[4,5-c]pyridin-5(4H)-yl)methanone]", "AC50": "≤ 0.5"}
{"molecule": "Cn1cc(-c2nc(C(F)F)c(C(=O)N3CCc4[nH]cnc4[C@@H]3c3nc4ccccc4o3)o2)cn1", "note": "[Example 759, (R)-(4-(benzo[d]oxazol-2-yl)-6,7-dihydro-1H-imidazo[4,5-c]pyridin-5(4H)-yl)(4-(difluoromethyl)-2-(1-methyl-1H-pyrazol-4-yl)oxazol-5-yl)methanone]", "AC50": "1 to 5"}
{"molecule": "O=C(c1nnc(-c2ccccn2)o1)N1CCc2[nH]cnc2[C@@H]1c1nc2cc(F)cc(F)c2o1", "note": "[Example 579, (R)-(4-(5,7-difluorobenzo[d]oxazol-2-yl)-6,7-dihydro-1H-imidazo[4,5-c]pyridin-5(4H)-yl)(5-(pyridin-2-yl)-1,3,4-oxadiazol-2-yl)methanone]", "AC50": "≤ 0.5"}
{"molecule": "Cn1cc(-c2nnc(C(=O)N3CCc4[nH]cnc4[C@@H]3c3nc4cc(F)cc(F)c4o3)o2)cn1", "note": "[Example 666, (R)-(4-(5,7-difluorobenzo[d]oxazol-2-yl)-6,7-dihydro-1H-imidazo[4,5-c]pyridin-5(4H)-yl)(5-(1-methyl-1H-pyrazol-4-yl)-1,3,4-oxadiazol-2-yl)methanone]", "AC50": "≤ 0.5"}
{"molecule": "O=C(c1cnn2cc(N3CCC(O)CC3)ccc12)N1CCc2[nH]cnc2[C@@H]1c1nc2c(F)ccc(F)c2o1", "note": "[Example 896, (R)-(4-(4,7-difluorobenzo[d]oxazol-2-yl)-6,7-dihydro-1H-imidazo[4,5-c]pyridin-5(4H)-yl)(6-(4-hydroxypiperidin-1-yl)pyrazolo[1,5-a]pyridin-3-yl)methanone]", "AC50": "≥ 5"}
{"molecule": "O=C(CCc1nccs1)N1CCc2[nH]cnc2[C@H]1c1nc2ccccc2o1", "note": "[Example 913, (S)-1-(4-(benzo[d]oxazol-2-yl)-6,7-dihydro-1H-imidazo[4,5-c]pyridin-5(4H)-yl)-3-(thiazol-2-yl)propan-1-one]", "AC50": "0.5 to 1"}
{"molecule": "O=C(c1ocnc1C(F)F)N1CCc2[nH]cnc2[C@@H]1c1nc2cccc(OC(F)(F)F)c2o1", "note": "[Example 531, (R)-(4-(difluoromethyl)oxazol-5-yl)(4-(7-(trifluoromethoxy)benzo[d]oxazol-2-yl)-6,7-dihydro-1H-imidazo[4,5-c]pyridin-5(4H)-yl)methanone]", "AC50": "≤ 0.5"}
{"molecule": "Cc1cccc2nc([C@@H]3c4nc[nH]c4CCN3C(=O)c3nnc(-c4cnn(C(F)F)c4)o3)oc12", "note": "[Example 872, (S)-(5-(1-(difluoromethyl)-1H-pyrazol-4-yl)-1,3,4-oxadiazol-2-yl)(4-(7-methylbenzo[d]oxazol-2-yl)-6,7-dihydro-1H-imidazo[4,5-c]pyridin-5(4H)-yl)methanone]", "AC50": "0.5 to 1"}
{"molecule": "COCc1nc(C(F)F)c(C(=O)N2CCc3[nH]cnc3[C@H]2c2nc3cc(F)ccc3o2)o1", "note": "[Example 110, (S)-(4-(difluoromethyl)-2-(methoxymethyl)oxazol-5-yl)(4-(5-fluorobenzo[d]oxazol-2-yl)-6,7-dihydro-1H-imidazo[4,5-c]pyridin-5(4H)-yl)methanone]", "AC50": "0.5 to 1"}
{"molecule": "O=C(c1cnn2cc(N3CCC(F)CC3)ccc12)N1CCc2[nH]cnc2[C@@H]1c1nc2c(F)cccc2o1", "note": "[Example 478, (R)-(4-(4-fluorobenzo[d]oxazol-2-yl)-6,7-dihydro-1H-imidazo[4,5-c]pyridin-5(4H)-yl)(6-(4-fluoropiperidin-1-yl)pyrazolo[1,5-a]pyridin-3-yl)methanone]", "AC50": "≥ 5"}
{"molecule": "O=C(c1ocnc1C(F)F)N1CC2(CC2)c2[nH]cnc2[C@H]1c1nc2cccc(F)c2o1", "note": "[Example 911, (S)-(4-(difluoromethyl)oxazol-5-yl)(4′-(7-fluorobenzo[d]oxazol-2-yl)spiro[cyclopropane-1,7′-imidazo[4,5-c]pyridin]-5′(1′H,4′H,6′H)-yl)methanone]", "AC50": "≤ 0.5"}
{"molecule": "Cn1nc(Cl)nc1C(=O)N1CCc2[nH]cnc2[C@@H]1c1nc2cccc(F)c2o1", "note": "[Example 284, (R)-(3-chloro-1-methyl-1H-1,2,4-triazol-5-yl)(4-(7-fluorobenzo[d]oxazol-2-yl)-6,7-dihydro-1H-imidazo[4,5-c]pyridin-5(4H)-yl)methanone]", "AC50": "1 to 5"}
{"molecule": "[2H][C@@]1(c2nc3cc(F)ccc3o2)c2nc[nH]c2CCN1C(=O)c1oc(C(C)(C)O)nc1C(F)F", "note": "[Example 905]", "AC50": "≤ 0.5"}
{"molecule": "Cn1cc(-c2nnc(C(=O)N3Cc4[nH]cnc4[C@H]3c3nc4ccccc4o3)o2)cn1", "note": "[Example 935, (S)-(4-(benzo[d]oxazol-2-yl)-4,6-dihydropyrrolo[3,4-d]imidazol-5(1H)-yl)(5-(1-methyl-1H-pyrazol-4-yl)-1,3,4-oxadiazol-2-yl)methanone]", "AC50": "≥ 5"}
{"molecule": "CN(C)c1cn2ncc(C(=O)N3CCc4[nH]cnc4[C@@H]3c3nc4cc(F)ccc4o3)c2cc1Cl", "note": "[Example 208, (R)-(5-chloro-6-(dimethylamino)pyrazolo[1,5-a]pyridin-3-yl)(4-(5-fluorobenzo[d]oxazol-2-yl)-6,7-dihydro-1H-imidazo[4,5-c]pyridin-5(4H)-yl)methanone]", "AC50": "1 to 5"}
{"molecule": "O=C(c1oc(-c2ccccn2)nc1C1CC1)N1CCc2[nH]cnc2[C@H]1c1nc2cc(F)ccc2o1", "note": "[Example 43, (S)-(4-cyclopropyl-2-(pyridin-2-yl)oxazol-5-yl)(4-(5-fluorobenzo[d]oxazol-2-yl)-6,7-dihydro-1H-imidazo[4,5-c]pyridin-5(4H)-yl)methanone]", "AC50": "≤ 0.5"}
{"biological_target": "T1, human PAH with the R408W mutation (A375 R408W cells)", "assay": "Cell Based Phenylalanine Flux Assay", "settings": "A375 cells expressing R408W PAH; 24 hrs with compound, then 20 μM sepiapterin and 800 μM 13C9,15N-Phenylalanine for 4 hours; 13C-Tyrosine by LC-MS; average where tested multiple times", "outline": "as §1", "units": {"AC50": "µM"}}
{"molecule": "COC(=O)N1CC(C(=O)N2CCc3[nH]cnc3C2c2nc3cc(F)ccc3o2)C1", "note": "(stereo not drawn)", "AC50": "1 to 5"}
{"molecule": "CC(C)(O)c1nnc(C(=O)N2CCc3[nH]cnc3C2c2nc3c(F)ccc(F)c3o2)o1", "note": "(stereo not drawn)", "AC50": "1 to 5"}
{"molecule": "O=C(c1nnc(-c2ncccc2F)o1)N1CCc2[nH]cnc2C1c1nc2cc(F)ccc2o1", "note": "(stereo not drawn)", "AC50": "1 to 5"}
{"molecule": "Cn1nc(C(F)F)nc1C(=O)N1CCc2[nH]cnc2C1c1nc2c(F)cc(F)cc2o1", "note": "(stereo not drawn)", "AC50": "1 to 5"}
